Source: ChEMBL document CHEMBL5038623, “Synthesis and bioactivities of new N-terminal dipeptide mimetics with aromatic amide moiety: Broad-spectrum antibacterial activity and high antineoplastic activity” (Eur J Med Chem, 2022)
In brackets after ≈: the same amount, converted by molar mass.

Assays:
[1] = system: Escherichia coli; test: Antibacterial activity against Escherichia coli ATCC25922 assessed as reduction in microbial growth after 24 hrs by broth dilution method; type: functional; settings: ATCC 25922
[2] = system: Staphylococcus aureus; test: Antibacterial activity against Staphylococcus aureus ATCC 6538 assessed as reduction in microbial growth after 24 hrs by broth dilution method; type: functional
[3] = system: Klebsiella pneumoniae; test: Antibacterial activity against Klebsiella pneumoniae ATCC 700603 assessed as reduction in microbial growth after 24 hrs by broth dilution method; type: functional
[4] = system: Staphylococcus aureus; test: Antibacterial activity against methicillin-resistant Staphylococcus aureus ATCC 33591 assessed as MIC incubated for 12 hrs
[5] = Selectivity index, HC50 for hemolytic activity in rabbit RBC to MIC for antibacterial activity against methicillin-resistant Staphylococcus aureus ATCC 33591; type: toxicity; settings: rabbit red blood cells (RBC), read-out: Selectivity Index
[6] = system: Escherichia coli; test: Antibacterial activity against Escherichia coli ATCC25922 assessed as zone of inhibition incubated for 12 hrs by disc diffusion method; type: functional, ATCC 25922
[7] = system: Staphylococcus aureus; test: Antibacterial activity against Staphylococcus aureus ATCC 6538 assessed as zone of inhibition incubated for 12 hrs by disc diffusion method; type: functional
[8] = Hemolytic activity in rabbit RBC measured after 1 hrs by microplate reader assay; type: toxicity, cell-based, Oryctolagus cuniculus, Erythrocyte; settings: rabbit red blood cells (RBC)
For DIZ in this document: test concentration or dose not given here.

Compound	MIC [1] [µg/mL]	MIC [2] [µg/mL]	MIC [3] [µg/mL]	MIC [4] [µg/mL]	selectivity ratio [5]	diameter of the inhibition zone (DIZ) [6] [mm]	diameter of the inhibition zone (DIZ) [7] [mm]	HC50 at 1 h [8] [µg/mL]
C[C@H]1COc2c(N3CCN(C)CC3)c(F)cc3c(=O)c(C(=O)O)cn1c23.C[C@H]1COc2c(N3CCN(C)CC3)c(F)cc3c(=O)c(C(=O)O)cn1c23.O [LEVOFLOXACIN]	2.5	1.25	< 0.63	1.25				
C#Cc1ccc(NC(=O)[C@@H](N)C(C)CC)cc1 (some centres undefined)	20	39	39	39 (≈ 169 µM)	20.8	12.3	12	813
C#Cc1ccc(NC(=O)[C@@H](N)CC(C)C)cc1	10	5	10	10 (≈ 43.4 µM)	158	14.5	17.7	789
C#Cc1ccc(NC(=O)[C@@H](N)Cc2ccccc2)cc1	39	10	39	10 (≈ 37.8 µM)	> 125	10	13	> 1250
C#Cc1cccc(NC(=O)[C@@H](N)C(C)C)c1	10	10	20	20 (≈ 92.5 µM)	83.6	15.4	15.7	836
C#Cc1cccc(NC(=O)[C@H](N)C(C)C)c1	39	10	20	20 (≈ 92.5 µM)	> 125	10	11.5	> 1250
CC(C)C(NC(=O)[C@H](N)Cc1ccccc1)C(=O)O (some centres undefined)	> 1250	> 1250	> 1250			<6	<6	
CC(C)[C@H](N)C(=O)Nc1ccc(I)cc1	39	20	39	20 (≈ 62.9 µM)	39.7		17.6	794
CC(C)[C@H](N)C(=O)Nc1ccccc1	> 1250	> 1250	> 1250					
